The text below walks through data of patent publication US10294202B2, “Pyrrolidinones as herbicides” (FMC Corporation, priority 2013, dated 2019).

Structures are written as SMILES.

One assay deals with crabgrass, large. In words: Test A pre-/postemergence herbicide test. The assay is classed as in vivo, Digitaria sanguinalis. Summed up:
(§1)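 Seeds sown in loam soil/sand blend received a preemergence directed soil spray of test chemical in non-phytotoxic solvent with surfactant; postemergence plants (2–10 cm, one- to two-leaf stage) were sprayed with the same formulation. After about 10 days in greenhouse, injury was rated visually versus untreated controls, 0 (no effect) to 100 (complete control).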

Another assay concerns velvetleaf. In words: Test A pre-/postemergence herbicide test. The assay is classed as in vivo, Abutilon theophrasti. Summed up:
as §1

The test system of the next assay is ducksalad. Description: Test C flooded paddy test. Format: in vivo, Heteranthera limosa. The settings on record: Flood. Summed up:
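2-leaf stage; flood 3 cm over soil; compound into paddy water; depth held; greenhouse 13–15 d; visual % control vs untreated (0 = none, 100 = complete); "-" = not tested.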

The next assay has as its system morningglory. In words: Test A pre-/postemergence herbicide test. Format: in vivo, Ipomoea spp. An outline of the steps: as §1
For a further assay, the system named is corn. In words: Test A pre-/postemergence herbicide test. The assay is classed as in vivo, Zea mays. An outline of the steps:
as §1

The test system of a further assay is wheat (winter wheat). In words: Test C pre-/postemergence herbicide test. Format: in vivo, Triticum aestivum. An outline of the steps: (§2)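 Visual rating, 0 (no effect) to 100 (complete control), versus untreated controls after 13 to 15 days in the greenhouse. Pre: seeds in loam/sand, sprayed at planting. Post: 1- to 4-leaf plants (2 to 18 cm) in peat-based mix. Compounds in non-phytotoxic solvent plus surfactant.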

Another assay concerns blackgrass. Description: Test C pre-/postemergence herbicide test. The assay is classed as in vivo, Alopecurus myosuroides. An outline of the steps:
as §2

[1] abbreviates: Postemergence, 125 g ai/ha, 0 to 100 scale, 0 no effect, 100 complete control.
[2] abbreviates: Postemergence, 500 g ai/ha, 0 to 100 scale (0 no effect, 100 complete control).
Setting [3] is: Preemergence, 125 g ai/ha, visual rating on 0 to 100 scale (0 no effect, 100 complete control).
Setting [4] is: preemergence, 500 g ai/ha, 0 to 100 scale.
Where [5] appears, read: 31 g ai/ha, scale of 0 to 100 where 0 is no effect and 100 is complete control, 13 to 15 days.
[6] abbreviates: 62 g ai/ha, scale of 0 to 100 where 0 is no effect and 100 is complete control, 13 to 15 days.
Setting [7] is: 125 g ai/ha, scale of 0 to 100 where 0 is no effect and 100 is complete control, 13 to 15 days.
Where [8] appears, read: 250 g ai/ha, scale of 0 to 100 where 0 is no effect and 100 is complete control, 13 to 15 days.
The mark [9] stands for this setting: Preemergence, 31 g ai/ha, scale 0 to 100, 0 is no effect and 100 is complete control.
Where [10] appears, read: Preemergence, 62 g ai/ha, scale 0 to 100 (0 no effect, 100 complete control).
Where [11] appears, read: Preemergence, 125 g ai/ha, scale 0 to 100 (0 no effect, 100 complete control).
Setting [12] is: Preemergence, 62 g ai/ha, scale 0 to 100.
Where [13] appears, read: Postemergence, 31 g ai/ha, scale 0 to 100 (0 no effect, 100 complete control).
Setting [14] is: Postemergence, 62 g ai/ha, scale 0 (no effect) to 100 (complete control).
The mark [15] stands for this setting: Postemergence, 125 g ai/ha, scale 0 to 100 (0 no effect, 100 complete control).
Where [16] appears, read: Postemergence, 250 g ai/ha, scale 0 to 100 (0 no effect, 100 complete control).
The mark [17] stands for this setting: Preemergence, 125 g ai/ha, scale 0 to 100.
Setting [18] is: Postemergence, 125 g ai/ha, visual rating on 0 to 100 scale (0 no effect, 100 complete control), approx. 10 days.

In the case of `O=C1NCC(c2ccc(F)c(F)c2)C1C(=O)Nc1cccc(F)c1` (racemic) [Compound 12], the “Plant response rating, Crabgrass, Large” value with crabgrass, large (setting [1]) came to 80; in the assay on crabgrass, large (setting [2]) it was 90; in the assay with crabgrass, large (setting [4]) it was 90. For the same compound, in the assay on crabgrass, large (setting [3]), the “Crabgrass, Large plant response rating” value was 90. In addition, the “Plant response rating, Velvetleaf” value in the assay on velvetleaf (setting [1]) is reported as 0; with velvetleaf (setting [2]), 20; in the assay with velvetleaf (setting [4]), 0. Moreover, the “Velvetleaf plant response rating” value in the assay with velvetleaf (setting [3]) is 0. Besides, the “Plant response rating, Ducksalad” value in the assay on ducksalad (setting [5]) was 0; in the assay on ducksalad (setting [6]), 0; in the assay on ducksalad (setting [7]), 0; with ducksalad (250 g ai/ha, scale 0 to 100), 0. For the same compound, the “Plant response rating, Morningglory” value in the assay with morningglory (setting [1]), in the assay on morningglory (setting [2]) and in the assay with morningglory (setting [4]) was 0 throughout. Moreover, in the assay on morningglory (setting [3]), the “Morningglory plant response rating” value is 0. Further, the “Plant response rating, Corn” value in the assay on corn (setting [1]), in the assay on corn (setting [2]) and in the assay with corn (setting [4]) was 0 in each case. The “Corn plant response rating” value with corn (setting [3]) was 0.

As for `O=C1NCC(c2cccc(C(F)F)c2)C1C(=O)Nc1cccc(F)c1F` (racemic) [Compound 211], the “Plant response rating, Ducksalad” value in the assay on ducksalad (setting [7]) was found to be 60; in the assay with ducksalad (setting [8]) it was 100; in the assay with ducksalad (500 g ai/ha, scale 0 to 100), 75; with ducksalad (1000 g ai/ha, scale 0 to 100) it was 100. Moreover, the “Wheat plant response rating” value in the assay with wheat (winter wheat) (setting [9]) and in the assay on wheat (winter wheat) (setting [10]) was 0 in each case. For the same compound, the “Plant response rating, Wheat” value in the assay on wheat (winter wheat) (setting [11]) is 30. In the assay with wheat (winter wheat) (Preemergence, 250 g ai/ha), the “Plant response rating (scale of 0 to 100), Wheat” value was found to be 45. Further, the “Blackgrass plant response rating” value with blackgrass (setting [9]) was determined as 0. Also, the entries for the “Plant response rating, Blackgrass” value in the assay with blackgrass (setting [12]) and in the assay with blackgrass (setting [11]) were 20 and 85, respectively. Also, the “Plant response rating (scale of 0 to 100), Blackgrass” value in the assay on blackgrass (Preemergence, 250 g ai/ha) is 90. The “Plant response rating, Corn” value in the assay on corn (Postemergence, 125 g ai/ha, 0 to 100 scale, 0 is no effect, 100 is complete control) amounted to 30. In addition, the “Corn plant response rating (0 to 100 scale, 0 is no effect, 100 is complete control)” value with corn (Postemergence, 500 g ai/ha) was 70.

Turning to `Cc1cccc(NC(=O)C2C(=O)NCC2c2cccc(C(F)(F)F)c2)c1` (stereo not drawn) [Compound 317], the “Plant response rating, Ducksalad” value in the assay on ducksalad (setting [5]), in the assay on ducksalad (setting [6]), in the assay with ducksalad (setting [7]) and in the assay with ducksalad (setting [8]) was 0 each time. For the same compound, the “Plant response rating, Wheat” value with wheat (winter wheat) (setting [13]), with wheat (winter wheat) (setting [14]), in the assay with wheat (winter wheat) (setting [15]), in the assay with wheat (winter wheat) (setting [16]) and in the assay with wheat (winter wheat) (setting [17]) was 0 throughout. Besides, in the assay on wheat (winter wheat) (setting [10]), the “Wheat plant response rating” value was determined as 0. Further, the “Plant response rating, Blackgrass” value was 0 with blackgrass (setting [13]); 0 in the assay with blackgrass (setting [14]); 0 in the assay with blackgrass (setting [15]); 0 in the assay with blackgrass (setting [16]); 50 with blackgrass (setting [17]). Moreover, the figures for the “Blackgrass plant response rating” value in the assay on blackgrass (setting [9]) and in the assay with blackgrass (setting [10]) were 0 and 40, respectively. Moreover, in the assay with blackgrass (Preemergence, 250 g ai/ha), the “Plant response rating (scale of 0 to 100), Blackgrass” value amounted to 50. For the same compound, the “Plant response rating, Corn” value in the assay with corn (setting [18]) stood at 0; in the assay on corn (setting [2]), 20.

In the case of `O=C1NCC(c2cccc(OC(F)F)c2)C1C(=O)Nc1cccc(F)c1F` (stereo not drawn) [Compound 324], the “Plant response rating, Ducksalad” value in the assay with ducksalad (setting [5]) was found to be 40; in the assay on ducksalad (setting [6]), 70; in the assay with ducksalad (setting [7]), 95; with ducksalad (setting [8]), 100. Further, the “Plant response rating, Wheat” value is listed as 0 in the assay with wheat (winter wheat) (setting [13]); 0 in the assay with wheat (winter wheat) (setting [14]); 0 in the assay on wheat (winter wheat) (setting [15]); 0 in the assay with wheat (winter wheat) (setting [16]); 65 in the assay with wheat (winter wheat) (setting [17]). In the assay on wheat (winter wheat) (setting [10]), the “Wheat plant response rating” value turned out to be 25. Also, the “Plant response rating, Blackgrass” value was determined as 0 in the assay on blackgrass (setting [13]); 0 in the assay on blackgrass (setting [14]); 0 in the assay on blackgrass (setting [15]); 0 with blackgrass (setting [16]); 70 in the assay on blackgrass (setting [17]). In addition, the “Blackgrass plant response rating” value is listed as 100 with blackgrass (setting [9]) and 30 in the assay with blackgrass (setting [10]). In the assay on blackgrass (Preemergence, 250 g ai/ha), the “Plant response rating (scale of 0 to 100), Blackgrass” value was found to be 95. Moreover, the “Plant response rating, Corn” value in the assay on corn (setting [18]) was determined as 50; in the assay with corn (setting [2]) it was 90.

Turning to `O=C1NCC(c2ccc(F)cc2)C1C(=O)Nc1cccc(F)c1F` (racemic) [Compound 119], the “Plant response rating, Ducksalad” value in the assay on ducksalad (setting [5]) came out at 100; in the assay on ducksalad (setting [6]), 100; in the assay with ducksalad (setting [7]) it was 100; with ducksalad (250 g ai/ha, scale 0 to 100), 100. Besides, the “Plant response rating, Wheat” value with wheat (winter wheat) (setting [13]) is listed as 0; with wheat (winter wheat) (setting [14]), 0; in the assay on wheat (winter wheat) (setting [15]), 0; in the assay with wheat (winter wheat) (setting [16]) it was 0; in the assay on wheat (winter wheat) (setting [12]), 5; with wheat (winter wheat) (setting [11]), 60. Besides, the “Wheat plant response rating” value with wheat (winter wheat) (setting [9]) is reported as 5. Moreover, the “Plant response rating (scale of 0 to 100), Wheat” value in the assay with wheat (winter wheat) (Preemergence, 250 g ai/ha) is 90. The “Plant response rating, Blackgrass” value in the assay with blackgrass (setting [13]) is listed as 0; in the assay on blackgrass (setting [14]), 0; in the assay on blackgrass (setting [15]), 0; in the assay with blackgrass (setting [16]) it was 0; with blackgrass (setting [12]), 70; in the assay with blackgrass (setting [11]), 80. Moreover, the “Blackgrass plant response rating” value in the assay on blackgrass (setting [9]) came to 0. Besides, the “Plant response rating (scale of 0 to 100), Blackgrass” value with blackgrass (Preemergence, 250 g ai/ha) is given as 85. For the same compound, the “Plant response rating, Corn” value with corn (setting [1]) was 30; with corn (setting [2]), 70.

With `O=C1NCC(c2cccc(C(F)(F)F)c2)C1C(=O)Nc1ccccc1Cl` (stereo not drawn) [Compound 312], the “Plant response rating, Ducksalad” value amounted to 50 in the assay with ducksalad (setting [5]), 60 in the assay on ducksalad (setting [6]), 65 with ducksalad (setting [7]) and 95 in the assay with ducksalad (setting [8]). For the same compound, the “Plant response rating, Wheat” value in the assay on wheat (winter wheat) (setting [13]) is 0; in the assay with wheat (winter wheat) (setting [14]), 0; in the assay with wheat (winter wheat) (setting [15]), 0; in the assay with wheat (winter wheat) (setting [16]) it was 0; in the assay with wheat (winter wheat) (setting [17]), 60. Also, in the assay on wheat (winter wheat) (setting [10]), the “Wheat plant response rating” value amounted to 30. Also, in the assay with wheat (winter wheat) (Preemergence, 250 g ai/ha), the “Plant response rating (scale of 0 to 100), Wheat” value was found to be 65. In addition, the “Plant response rating, Blackgrass” value in the assay with blackgrass (setting [13]) is reported as 0; in the assay on blackgrass (setting [14]), 0; in the assay on blackgrass (setting [15]), 0; in the assay on blackgrass (setting [16]) it was 0; in the assay on blackgrass (setting [17]), 70. Besides, the figures for the “Blackgrass plant response rating” value in the assay on blackgrass (setting [9]) and in the assay on blackgrass (setting [10]) were 40 and 45, respectively. Also, the “Plant response rating (scale of 0 to 100), Blackgrass” value in the assay on blackgrass (Preemergence, 250 g ai/ha) was determined as 75. Moreover, the “Plant response rating, Corn” value in the assay on corn (setting [18]) is listed as 60; in the assay with corn (setting [2]), 80.
